Measured values: patent US20240082282A1 (priority 2020, published 2024)

System: murine gut microbiome
Assay: Impact on the murine fecal microbiome (16S rRNA sequencing)
Conditions: mouse, in vivo
Description: Stool samples were collected and V4 region of the 16s rRNA gene was amplified using primers and sequenced (IonTorrent).
Fecal pellets were collected 3 days before and 3 days after antibiotic treatment and were stored at −80° C. in PBS. Sequencing of a stool pellet from each mouse from before and after treatment was performed by MR DNA (www.mrdnalab.com, Shallowater, TX, USA) on an Ion Torrent PGM. Using PCR primers, the V4 variable region of the 16SrRNA gene was amplified in a single-step 30 cycle PCR with the HotStarTaq Plus Master Mix Kit (Qiagen, USA). The following conditions were used: 94° C. for 3 minutes and 30 cycles of 94° C. for 30 seconds, 53° C. for 40 seconds and 72° C. for 1 minute, then a final elongation step for 5 minutes at 72° C. […] Barcodes and primers and then sequences<150 bp were removed. Further, sequences with homopolymer runs exceeding 6 bp and sequences with ambiguous calls were removed. The sequences were then denoised, OTUs were generated, and chimeras were removed; OTUs were clustered at 3% divergence. Taxonomic classification was performed using BLASTn against a database derived from RDPII available at www.rdp.cme.msu.edu) and NCBI (www.ncbi.nlm.nih.gov). The change in relative abundance of the most abundant genera from before to after treatment of each individual mouse was reported. Further, raw sequences were processed in Qiita (Gonzalez, A., et al. (2018). Nat Methods 15, 796-798; the contents of which are herein incorporated by reference in its entirety) and were demultiplexed, trimmed to 100 bp, and closed reference OTU picking was performed against the Greengenes database at 97% similarity (McDonald, D. et al. (2012). ISME J 6, 610-618; the contents of which are herein incorporated by reference in its entirety). The alpha diversity based on the Simpson index was calculated in Qiita. The change in the Simpson index was calculated for the fecal microbiome of each mouse from before to after treatment. Statistical significance was calculated using a one-way ANOVA with Tukey's multiple comparisons test (p<0.05).

CC1(C)S[C@@H]2[C@H](NC(=O)[C@H](N)c3ccccc3)C(=O)N2[C@H]1C(=O)O [Ampicillin, reference compound]
Changes in the composition of the microbiota: significant changes
